Measurements as given in BindingDB's records for doi:10.3109/14756360902797328 (Rheinische Friedrich-Wilhelms-Universitat Bonn, 2009).

Columns and labels:
Assay in all cases: Inhibition Assay
[1] = target: Cathepsin S (Homo sapiens, UniProt P25774); details: pH 6.5; 37 °C
Experimental: (§1) Cathepsin enzyme activities were calculated from kinetic measurements performed by fluorimetric detection of the product 7-amino-4-methylcoumarin at 37 C in a stirred cuvette. The wavelengths for excitation and emission were 360nm and 440nm.

[2] = target: Procathepsin L (Bos taurus, UniProt P25975); details: pH 6; 37 °C
Procathepsin L, sequence (P25975 whole entry): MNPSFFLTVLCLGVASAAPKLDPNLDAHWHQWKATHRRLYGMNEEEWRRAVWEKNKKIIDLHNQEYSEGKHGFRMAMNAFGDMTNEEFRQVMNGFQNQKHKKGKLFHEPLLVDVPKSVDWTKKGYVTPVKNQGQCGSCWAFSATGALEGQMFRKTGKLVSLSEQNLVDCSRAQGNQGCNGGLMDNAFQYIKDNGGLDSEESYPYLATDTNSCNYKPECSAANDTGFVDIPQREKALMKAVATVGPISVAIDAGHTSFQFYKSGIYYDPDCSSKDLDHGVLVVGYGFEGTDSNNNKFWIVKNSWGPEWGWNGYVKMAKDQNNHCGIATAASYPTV
Experimental: as §1

[3] = target: T1, Cathepsin K (Homo sapiens, UniProt P43235); details: pH 5; 37 °C
T1 sequence (P43235 whole entry): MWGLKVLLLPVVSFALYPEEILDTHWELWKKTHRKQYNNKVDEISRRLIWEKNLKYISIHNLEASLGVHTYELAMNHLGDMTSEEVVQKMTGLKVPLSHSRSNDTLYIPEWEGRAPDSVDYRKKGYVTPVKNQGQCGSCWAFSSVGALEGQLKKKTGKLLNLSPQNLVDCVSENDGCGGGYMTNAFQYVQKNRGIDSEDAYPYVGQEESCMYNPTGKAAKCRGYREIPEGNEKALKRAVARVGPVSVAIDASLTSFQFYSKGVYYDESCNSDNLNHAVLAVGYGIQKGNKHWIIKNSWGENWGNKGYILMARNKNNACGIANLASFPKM
Experimental: as §1

[4] = target: T2, Papain (Carica papaya, UniProt P00784); details: pH 6.5; 25 °C
T2 sequence (P00784 whole entry): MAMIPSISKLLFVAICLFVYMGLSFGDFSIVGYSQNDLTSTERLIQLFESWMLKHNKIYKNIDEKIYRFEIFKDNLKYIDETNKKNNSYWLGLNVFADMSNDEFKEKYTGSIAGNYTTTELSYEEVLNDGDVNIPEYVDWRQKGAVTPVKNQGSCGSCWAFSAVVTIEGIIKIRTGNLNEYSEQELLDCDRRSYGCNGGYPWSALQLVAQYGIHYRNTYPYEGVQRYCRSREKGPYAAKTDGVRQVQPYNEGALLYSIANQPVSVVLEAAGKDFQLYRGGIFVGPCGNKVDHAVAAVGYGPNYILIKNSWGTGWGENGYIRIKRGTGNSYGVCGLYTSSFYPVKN
Experimental: Papain enzyme activities were determined by spectrophotometric detection of the product p-nitroaniline at 25 C in a a multicell holder (parallel measurements for each single inhibitor determination) at a wavelength of 405 nm.

Cathepsin S, sequence (P25774 whole entry): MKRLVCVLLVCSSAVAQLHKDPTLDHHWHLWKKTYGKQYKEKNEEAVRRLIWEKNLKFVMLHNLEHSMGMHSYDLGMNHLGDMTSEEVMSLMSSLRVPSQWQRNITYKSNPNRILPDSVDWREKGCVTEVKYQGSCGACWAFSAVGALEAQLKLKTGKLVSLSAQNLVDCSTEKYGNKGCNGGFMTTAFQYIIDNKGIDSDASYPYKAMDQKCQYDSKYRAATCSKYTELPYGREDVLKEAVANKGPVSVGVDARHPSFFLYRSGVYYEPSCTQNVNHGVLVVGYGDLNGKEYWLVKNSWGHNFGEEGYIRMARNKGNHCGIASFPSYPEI

Row | Ki [1] [nM] | Ki [2] [nM] | Ki [3] [nM] | Ki [4] [nM] | Structure (SMILES)
1 | 730 | 520 | 3800 | – | C[S+](C)CCC(C#N)NC(=O)[C@H](Cc1ccccc1)NC(=O)OC(C)(C)C (stereo partly specified) [Dipeptide nitrile, 8]
2 | 650 | 270 | 3600 | 250 | CSCCC(C#N)NC(=O)[C@H](Cc1ccccc1)NC(=O)OC(C)(C)C (stereo partly specified) [Dipeptide nitrile, 7]
3 | 840 | 900 | 6300 | 1100 | CC(C)(C)OC(=O)N[C@@H](Cc1ccccc1)C(=O)N[C@H](C#N)CC#N [Dipeptide nitrile, 10]
